# Source: patent US11938123B2, “Use of 2,3,5-substituted thiophene compound to prevent, ameliorate, or treat breast cancers” (Pharos iBio Co., Ltd., priority 2018, dated 2024)
# Columns and labels:
# [1] = tested on: ZR-75-1; test: Cell viability, PHI-101 alone or with cisplatin (Example 2); type: cell-based; conditions: Homo sapiens, medium instead of cisplatin, 72 hours
# Method: (§1) Each of the breast cancer cell lines shown in Table 3 below was cultured using RPMI-1640 in a 100-mm culture dish, and then diluted to a density of 3,000 cells/90 μl using PBS.
# (§2) Thereafter, 90 μl of each of the diluted breast cancer cell lines was treated with 10 μl of a 1:2 serial dilution of a hydrochloride salt of PHI-101 to a final concentration of up to 100 μM and cultured under 5% CO2 at 37° C. for 1 hour, and then treated with cisplatin at an IC50 concentration for each cell line. Groups treated with PHI-101 alone were additionally treated with 10 μl of medium instead of cisplatin. Next, each of the cell lines was cultured under 5% CO2 at 37° C. for 72 hours. Next, the cells were counted using a Celltiter-Glo assay kit (Promega), and cell viability was measured by expressing the cell count as a percentage relative to that of a control group not treated with PHI-101 and cisplatin.
# (§3) IC50 for each breast cancer cell line was calculated by sigmoidal curve fitting using the PRIZM software, and the results of the calculation are shown in Table 4 below.
# [2] = tested on: MCF7; test: as above; type: cell-based; conditions: Homo sapiens, medium instead of cisplatin, 72 hours
# Method: as §1, §2, §3
# [3] = tested on: T47D; test: as above; type: cell-based; conditions: Homo sapiens, medium instead of cisplatin, 72 hours
# Method: as §1, §2, §3
# [4] = tested on: BT549; test: as above; type: cell-based; conditions: Homo sapiens, BT-549; BT549 (triple-negative); medium instead of cisplatin; 72 hours
# Method: as §1, §2, §3
# [5] = tested on: BT474; test: as above; type: cell-based; conditions: Homo sapiens, BT-474, medium instead of cisplatin, 72 hours
# Method: as §1, §2, §3
# [6] = tested on: JIMT-1; test: Tumor inhibitory activity in mice with Herceptin-resistant JIMT-1 tumors (Example 6); type: in vivo, NOD SCID female mice; conditions: JIMT-1 tumors in mice; PHI-101 60 mg/kg/day vs Herceptin 5 mg/kg/day; 3 weeks; FIG. 16
# Method: The Herceptin-resistant breast cancer cell line JIMT-1 was monolayer-cultured in an L-15 medium supplemented with 10% heat-inactivated fetal bovine serum under 5% CO2 at 37° C. The tumor cells were subcultured so as not to exceed passages 4 to 5 before confluence by trypsin-EDTA treatment. The tumor cells growing in an exponential growth phase were harvested and counted for tumor inoculation.
# As mice, 7-8-week-old NOD SCID female mice (20 to 22 g) (GemPharmatech Co., Ltd.) were prepared. The mice were quarantined for 7 days before use in the experiment, and mice with abnormal health were excluded from the experiment. The mice were housed in cages (300×180×150 mm) at 22±3° C. and a relative humidity of 40% to 70% under a 12-hour light/12-hour dark cycle. […]
# Measurement of the tumor volume was performed with calipers twice a week. The tumor volume (TV) (mm^3) was calculated using the following equation. […]
# The tumor growth inhibition (TGI) rate was calculated according to the following equation using the tumor volume. […]
# In order to evaluate whether PHI-101 has an effect on tumor inhibition in the mice, the volume and growth inhibition rate of the tumor generated by the breast cancer cell line JIMT-1 transplanted into the mice were analyzed by performing Example 6-1-5.
# [7] = Mouse body weight change in MDA-MB-468 tumor model (Example 5); type: in vivo, NOD SCID female mice; conditions: MDA-MB-468 tumor mice; olaparib 50 mg/kg/day, PHI-101 60 mg/kg/day; 28 days; FIG. 14
# Method: (§4) As mice, 6-8-week-old NOD SCID female mice (18 to 22 g) (GemPharmatech Co., Ltd) were prepared. The mice were quarantined for 7 days before use in the experiment, and mice with abnormal health were excluded from the experiment. The mice were housed in cages (300×180×150 mm) at 22±3° C. and a relative humidity of 40% to 70% under a 12-hour light/12-hour dark cycle. During the entire experimental period except for the period specified by the protocol, the mice were allowed to freely access sterilized dry granular food (Beijing Keaoxieli Feed Co., Ltd., Beijing, China) and water.
# (§5) For tumor induction, MDA-MB-468 breast cancer cells (1×10^7) in 0.1 ml of a mixture (1:1) of L-15 and Matrigel (BD, cat. No. 356234) were injected subcutaneously into the right flank of each mouse. […] Then, five mice were allocated for each group so that the average tumor volume was the same between the groups at the time point of treatment.
# The body weight of each mouse was measured twice a week, and the change (%) in body weight (BW) was calculated using the following equation. BW change (%)=(BWPG-Dx/BWPG-D1)×100
# In order to evaluate whether PHI-101 and/or olaparib affected the body weight of each mouse, the change in the body weight of each mouse was analyzed according to Example 5-1-5.
# [8] = tested on: MDA-MB-468; test: Tumor inhibitory activity in mice with MDA-MB-468 tumors (Example 5); type: in vivo, NOD SCID female mice; conditions: MDA-MB-468 tumors in mice; olaparib 50 mg/kg/day, PHI-101 60 mg/kg/day; treated 28 days
# Method: The breast cancer cell line MDA-MB-468 was monolayer-cultured in an L-15 medium supplemented with 10% heat-inactivated fetal bovine serum under 5% CO2 at 37° C. The tumor cells were subcultured so as not to exceed passages 4 to 5 before confluence by trypsin-EDTA treatment. The tumor cells growing in an exponential growth phase were harvested and counted for tumor inoculation.
# as §4, §5
# Measurement of the tumor volume was performed with calipers twice a week. The tumor volume (TV) (mm^3) was calculated using the following equation. TV=a×b^2/2
# The tumor growth inhibition (TGI) rate was calculated according to the following equation using the tumor volume. TGI (%)=(1−T/C)×100
# T=final tumor volume of experimental group/initial tumor volume of experimental group
# C=final tumor volume of control group/initial tumor volume of control group
# In order to evaluate whether PHI-101 and/or olaparib affects tumor inhibition in the mice, the volume and growth inhibition rate of the tumor generated by the breast cancer cell line MDA-MB-468 transplanted into the mice were analyzed according to Example 5-1-6.
# [9] = tested on: SK-BR-3; test: Breast cancer cell line viability, PHI-101 alone (Example 1); type: cell-based; conditions: Homo sapiens; SK-BR-3, non-triple-negative breast cancer; 72 hours; Celltiter-Glo
# Method: (§6) Each of the breast cancer cell lines shown in Table 1 below was cultured with DMEM (Dulbecco's Modified Eagle Medium) or RPMI1640 in a 100-mm culture dish (SPL) under 5% CO2 at 37° C., and then diluted to a density of 3,000 cells/90 μl using PBS (phosphate-buffered saline) (Biosesang).
# (§7) Next, 90 μl of each of the diluted breast cancer cell lines was treated with 10 μl of a 1:2 serial dilution of a hydrochloride salt of the compound represented by Formula 1 (hereinafter referred to as “PHI-101”) to a final concentration of up to 100 μM, and then cultured under 5% CO2 at 37° C. for 72 hours. After culture, the cells were counted using a Celltiter-Glo assay kit (Promega), and cell viability was measured by expressing the cell count as a percentage relative to that of a control group not treated with PHI-101.
# (§8) The IC50 of PHI-101 for each breast cancer cell line was calculated by sigmoidal curve fitting using the PRIZM software, and the results of the calculation are shown in Table 2 below. It was confirmed that PHI-101 had excellent ability to inhibit the breast cancer cell lines, and that PHI-101 also had excellent ability to inhibit the triple-negative breast cancer cell lines (FIGS. 1 to 3).
# [10] = tested on: ZR-75-1; test: as above; type: cell-based; conditions: Homo sapiens; ZR-75-1, non-triple-negative breast cancer; 72 hours; Celltiter-Glo
# Method: as §6, §7, §8
# [11] = tested on: MDA-MB-468; test: as above; type: cell-based; conditions: Homo sapiens; MDA-MB-468, triple-negative breast cancer; 72 hours; Celltiter-Glo
# Method: as §6, §7, §8
# [12] = tested on: HCC1937; test: as above; type: cell-based; conditions: Homo sapiens; HCC1937, triple-negative breast cancer; 72 hours; Celltiter-Glo
# Method: as §6, §7, §8
# [13] = tested on: MCF7; test: as above; type: cell-based; conditions: Homo sapiens; MCF7, non-triple-negative breast cancer; 72 hours; Celltiter-Glo
# Method: as §6, §7, §8
# [14] = tested on: HS578T; test: as above; type: cell-based; conditions: Homo sapiens, Hs-578T, triple-negative breast cancer, 72 hours, Celltiter-Glo
# Method: as §6, §7, §8
# [15] = tested on: JIMT1; test: as above; type: cell-based; conditions: Homo sapiens, JIMT-1; JIMT1, non-triple-negative breast cancer; 72 hours; Celltiter-Glo
# Method: as §6, §7, §8
# [16] = tested on: T47D; test: as above; type: cell-based; conditions: Homo sapiens, non-triple-negative breast cancer, 72 hours, Celltiter-Glo
# Method: as §6, §7, §8
# [17] = tested on: MDA-MB-231; test: as above; type: cell-based; conditions: Homo sapiens; MDA-MB-231, triple-negative breast cancer; 72 hours; Celltiter-Glo
# Method: as §6, §7, §8
# [18] = tested on: BT549; test: as above; type: cell-based; conditions: Homo sapiens, BT-549; BT549, triple-negative breast cancer; 72 hours; Celltiter-Glo
# Method: as §6, §7, §8
# [19] = tested on: BT474; test: as above; type: cell-based; conditions: Homo sapiens, BT-474; BT474, non-triple-negative breast cancer; 72 hours; Celltiter-Glo
# Method: as §6, §7, §8
# [20] = tested on: MDA-MB-435; test: as above; type: cell-based; conditions: Homo sapiens; MDA-MB-435, triple-negative breast cancer; 72 hours; Celltiter-Glo
# Method: as §6, §7, §8
# [21] = tested on: SK-BR-3; test: Cell viability, olaparib alone or with PHI-101 (Example 3); type: cell-based; conditions: Homo sapiens, medium instead of PHI-101, 72 hours
# Method: (§9) Each of the breast cancer cell lines shown in Table 5 below was cultured with DMEM (Dulbecco's Modified Eagle Medium) or RPMI1640 in a 100-mm culture dish (SPL), and then diluted to a density of 3,000 cells/90 μl using PBS (phosphate-buffered saline) (Biosesang).
# (§10) Thereafter, 90 μl of each of the diluted breast cancer cell lines was treated with 10 μl of a 1:2 serial dilution of olaparib to a final concentration of up to 100 μM, and cultured under 5% CO2 at 37° C. for 1 hour. Then, each breast cancer cell line was treated with a hydrochloride salt of PHI-101 to a final concentration of 1 μM. Groups treated with olaparib alone were additionally treated with 10μ of medium instead of PHI-101. Thereafter, each cell line was cultured under 5% CO2 at 37° C. for 72 hours. Then, the cells were counted using a Celltiter-Glo assay kit (Promega), and cell viability was measured by expressing the cell count as a percentage relative to that of a control group not treated with PHI-101 and olaparib.
# (§11) IC50 for each breast cancer cell line was calculated by sigmoidal curve fitting using the PRIZM software, and the results of the calculation are shown in Table 6 below.
# [22] = tested on: ZR-75-1; test: as above; type: cell-based; conditions: Homo sapiens, medium instead of PHI-101, 72 hours
# Method: as §9, §10, §11
# [23] = tested on: MDA-MB-468; test: as above; type: cell-based; conditions: Homo sapiens; MDA-MB-468 (triple-negative); medium instead of PHI-101; 72 hours
# Method: as §9, §10, §11
# [24] = tested on: MCF7; test: as above; type: cell-based; conditions: Homo sapiens, medium instead of PHI-101, 72 hours
# Method: as §9, §10, §11
# [25] = tested on: HS578T; test: as above; type: cell-based; conditions: Homo sapiens, Hs-578T; HS578T (triple-negative); medium instead of PHI-101; 72 hours
# Method: as §9, §10, §11
# [26] = tested on: JIMT1; test: as above; type: cell-based; conditions: Homo sapiens, JIMT-1, medium instead of PHI-101, 72 hours
# Method: as §9, §10, §11
# [27] = tested on: T47D; test: as above; type: cell-based; conditions: Homo sapiens, medium instead of PHI-101, 72 hours
# Method: as §9, §10, §11
# [28] = tested on: BT474; test: as above; type: cell-based; conditions: Homo sapiens, BT-474, medium instead of PHI-101, 72 hours
# Method: as §9, §10, §11
structure (smiles),measurement,setting,value
"NC(=O)Nc1cc(C#Cc2cccc(F)c2)sc1C(=O)N[C@H]1CCCNC1 [PHI-101, (S)-5-((3-fluorophenyl)ethynyl)-N-(piperidin-3-yl)-3-ureido thiophene-2-carboxamide]",IC50,[1],11.8 µM
same,IC50,[2],3.23 µM
same,IC50,[3],19.2 µM
same,IC50,[4],1.71 µM
same,IC50,[5],14.3 µM
same,"Growth inhibition rate of the Herceptin-resistant tumor, compared with Herceptin group",[6],higher
same,Change in the body weight of each mouse,[7],no significant change
same,T/C,[8],84%
same,TGI,[8],16%
same,Tumor volume (52 days),[8],443 ± 18 mm^3
same,IC50,[9],4.11 µM
same,IC50,[10],11.4 µM
same,IC50,[11],3.74 µM
same,IC50,[12],4.03 µM
same,IC50,[13],3.71 µM
same,IC50,[14],1.8 µM
same,IC50,[15],0.27 µM
same,IC50,[16],17.8 µM
same,IC50,[17],4.97 µM
same,IC50,[18],1.63 µM
same,IC50,[19],14.7 µM
same,IC50,[20],1.51 µM
O=C(c1cc(Cc2n[nH]c(=O)c3ccccc23)ccc1F)N1CCN(C(=O)C2CC2)CC1 [olaparib],IC50,[21],127 µM
same,IC50,[22],352 µM
same,IC50,[23],47.1 µM
same,IC50,[24],98 µM
same,IC50,[25],186 µM
same,IC50,[26],520 µM
same,IC50,[27],77 µM
same,IC50,[28],74.6 µM
same,Change in the body weight of each mouse,[7],no significant change
same,T/C,[8],76%
same,TGI,[8],24%
same,Tumor volume (52 days),[8],402 ± 25 mm^3
